The values that follow come from US5550143A, “Heterocyclic compounds” (Adir et Compagnie, priority 1992, dated 1996).

Structures are written as SMILES. Where two headings read alike, the source gives them in different places.

The test system of data set [1] is TNF. The data set is described as follows: Inhibition of the production of TNF in mice treated with LPS (amount of TNF in the serum). The data set is classed as in vivo. The settings on record: Mus musculus, 1 h; for inhibition in vivo at 50 mg/kg: oral, 30 min before LPS 2.5 μg i.p., compared with control group which received only LPS, read-out: % inhibition of the production of TNF after oral admin. The protocol: The test is carried out on mice. Thirty minutes after the intraperitoneal or oral administration of the molecule to be tested, the mice are treated intraperitoneally with 2.5 μg of LPS from Escherichia coli. The amount of TNF in the serum is measured after 1 hour by a biological method.

The subject of the next data set is LPS shock. The data set is described as follows: Protective effect in respect of LPS shock (% survival of mice after administration of LPS). The class given is in vivo. The settings on record: 30 min before LPS 1 μg. The protocol: The test is carried out on mice. The compound to be tested is administered intraperitoneally or orally. In the first protocol (i.p.), the compound is administered 30 minutes before the injection of 1 μg of LPS into mice. The mortality is determined 72 hours later.

In data set [2] the test system is TNF. The data set is described as follows: Peripheral effect: amount of TNF in serum and brain of rats after intracerebroventricular LPS. The class given is in vivo. The settings on record: Example 1 i.p. 8 mg/kg, FIG. 1. From the text:
In comparison with chlorpromazine, the compounds of the invention have only a peripheral effect.

Data set [3] relates to spontaneous motor activity. The data set is described as follows: Locomotive activity in mice (spontaneous motor activity). The data set is classed as in vivo. The settings on record: for Number of movements (as a % compared with a control group): 30 min before test, 15 min, ns p > 0.05, ** p < 0.01. As for the experimental part:
This test consists in determining the spontaneous motor activity of mice placed in an enclosure that constitutes a new environment and is equipped with a system of infra-red rays, the interruption of which when the animal passes through serves as a measurement criterion ("Activity monitor" Digiscan-Omnitech Electronics, Sufraco France).
The molecules are administered intraperitoneally 30 minutes before the test at doses of 1, 2, 2.5, 4, 5 and 10 mg/kg. The locomotive activity (number of movements) is measured for 15 minutes.

The test system of the next data set is corticosteronemia. Briefly: Measurement of corticosteronemia after administration of IL-1. The data set is classed as in vivo, mice. The settings on record: for Reduction in hypercorticosteronemia compared with control / Hypercorticosteronemia after admin. IL-1: 30 min before 1 μg IL-1 i.p.; for Hypercorticosteronemia after admin. IL-1: measured 2 hours later. As for the experimental part: Thirty minutes after the intraperitoneal administration of the molecule to be tested, the mice are treated with 1 μg of IL-1 injected intraperitoneally. Corticosteronemia is determined 2 hours later by a suitable technique. Under the same conditions, the compound and then a saline solution are administered intraperitoneally to a control group.

Data set [4] is described as follows: Hypotensive effect in rats. The class given is in vivo. The settings on record: 20 mg/kg intraperitoneally.
The next data set deals with T1, Procine pancreatic PLA2 (Sus scrofa, UniProt P00592).
T1 construct: from tissue; host or cells: porcine pancreas
The data set is described as follows: Inhibition of phospholipase PLA2 activity (E. coli membranes labelled with tritiated oleic acid). The data set is classed as biochemical, pigs. The settings on record: read-out: % Inhibition at 1 mM. As for the experimental part: PLA2 hydrolyses cell membrane phospholipids by freeing arachidonic acid (AA). Inhibition of that enzyme brings about a reduction in the amount of non-esterified free AA from which metabolites, such as leucotrienes and pro-inflammatory prostaglandins, are produced. The PLA2 activity is measured by using as substrate E. coli membranes labelled with tritiated oleic acid. Procine pancreatic PLA2 is incubated with the preparation for 30 minutes at 37° C. After centrifugation, the radioactivity of the supernatant is counted. The inhibitory activity of the compound (1 mM) is expressed in relation to the control.

Setting [5] is: ip, read-out: % inhibition of the production of TNF after i.p. admin.
Where [6] appears, read: 1 mM, 30 minutes at 37° C., relative to control.

T1 sequence (P00592 23-146): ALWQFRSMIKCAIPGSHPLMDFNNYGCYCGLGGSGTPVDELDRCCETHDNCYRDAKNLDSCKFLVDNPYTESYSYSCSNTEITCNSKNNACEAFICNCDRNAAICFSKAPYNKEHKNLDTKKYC

On to `CN(C)CCCN1c2ccccc2Sc2ccc(Cl)cc21` [Chlorpromazine, reference compound], for which the inhibition in vivo at 4 mg/kg in the data set with TNF [1] (setting [5]) was 100%. For the same molecule, the “% survival 72 h after i.p. administration” value came to 36% in the data set with LPS shock (1 mg/kg) and 77% in the data set on LPS shock (4 mg/kg). The “amount of TNF in the brain (rats, intracerebroventricular LPS)” value with TNF [2] (brain) is on record as “the amount in the brain, as is observed in rats treated with chlorpromazine”. Further, in the data set with TNF [2] (8 mg/kg), the “amount of TNF in the serum (rats, intracerebroventricular LPS)” value is “reduces the amount of TNF in the serum, as does chlorpromazine”. In addition, the “Number of movements (as a % compared with a control group)” value in data set [3] (IP 1 mg/kg) is listed as -20%; in data set [3] (IP 2 mg/kg), -58%; in data set [3] (IP 4 mg/kg) it was -64%. Besides, the “sedative action (in words)” value in data set [3] (i.p., chlorpromazine at 2 mg/kg and above) was “very sedative at 2 mg/kg and above”. Besides, the “Reduction in hypercorticosteronemia compared with control” value (“Reduction in hypercorticosteronemia” below) with corticosteronemia (4 mg/kg i.p.) is given as ~86%; with corticosteronemia (4 mg/kg i.p., listed as Chloropromazine) it was 85.7%. For the same molecule, in the data set with corticosteronemia (4 mg/kg i.p.), the “Hypercorticosteronemia after admin. IL-1” value came to 63 ng/ml serum. Moreover, in the data set on corticosteronemia (demonstrated by determination of corticosteronemia after IL-1), the “passage through the blood/brain barrier” value was “crosses the blood/brain barrier”. Moreover, the hypotension result in data set [4] is “severe hypotension from the 15th minute onwards”. Moreover, the inhibition – broadly, the percentage by which the read-out fell short of the control – at 1000 µM on Procine pancreatic PLA2 was 76%.
As for `C[N+](C)(C)CCCN1c2ccccc2Sc2ccc(Cl)cc21.[Br-]` [Example 1, N-[3-(2-chlorophenothiazin-10-yl)propyl]trimethylammonium bromide], the inhibition in vivo at 50 mg/kg with TNF [1] was determined as 68%. Further, the inhibition in vivo at 5 mg/kg in the data set with TNF [1] (setting [5]) turned out to be 75%. Also, in the data set on LPS shock (5 mg/kg), the “% survival 72 h after i.p. administration” value was 80%. Besides, the “amount of TNF in the serum (rats, intracerebroventricular LPS)” value in the data set on TNF [2] is given as “reduces the amount of TNF in the serum”. Further, in data set [3] (IP 5 mg/kg), the “Number of movements (as a % compared with a control group)” value is reported as -20%. The “Number of movements (as a % compared with a control group)” value in data set [3] (IP 10 mg/kg) is -9%. Moreover, in the data set with corticosteronemia (5 mg/kg i.p.), the “Reduction in hypercorticosteronemia” value amounted to 11.8% and the “Hypercorticosteronemia after admin. IL-1” value turned out to be 389 ng/ml serum. In data set [4], the hypotension entry was “No hypotension is observed”. Moreover, the inhibition at 1000 µM at Procine pancreatic PLA2 (setting [6]) was determined as 72%.
`C[N+](C)(C)CCCN1c2ccccc2[S+]([O-])c2ccc(Cl)cc21.[Br-]` (stereo not drawn) [Example 2, N-[3-(2-chloro-5-oxo-phenothiazin-10-yl)propyl]trimethylammonium bromide]: the inhibition in vivo at 50 mg/kg in the data set with TNF [1] came to 60%. Moreover, the inhibition in vivo at 5 mg/kg with TNF [1] (setting [5]) came out at 50%. In the data set on corticosteronemia (5 mg/kg i.p.), the “Reduction in hypercorticosteronemia” value was 5.4% and the “Hypercorticosteronemia after admin. IL-1” value was found to be 417 ng/ml serum. Moreover, the hypotension result in data set [4] is on record as “No hypotension is observed”.
With `C[N+](C)(C)CCCN1c2ccccc2S(=O)(=O)c2ccc(Cl)cc21` [Example 3, N-[3-(2-chloro-5-dioxo-phenothiazin-10-yl)propyl]trimethylammonium bromide], the inhibition in vivo at 5 mg/kg in the data set with TNF [1] (setting [5]) was 69%.
`CC(C)[N+](C)(C)CCCN1c2ccccc2Sc2ccc(Cl)cc21` [Example 6, N-[3-(2-chlorophenothiazin-10-yl)propyl] dimethylisopropylammonium bromide]: the inhibition in vivo at 50 mg/kg in the data set with TNF [1] came to 38%.
Turning to `CCCC[N+](C)(C)CCCN1c2ccccc2Sc2ccc(Cl)cc21.[Br-]` [Example 7, N-[3-(2-chlorophenothiazin-10-yl)propyl] butyldimethylammonium bromide], in the data set on TNF [1], the inhibition in vivo at 50 mg/kg came out at 72%. In the data set on TNF [1] (setting [5]), the inhibition in vivo at 5 mg/kg is 95%. Moreover, in the data set on LPS shock (5 mg/kg), the “% survival 72 h after i.p. administration” value came out at 40%. Further, the “Number of movements (as a % compared with a control group)” value is -43% in data set [3] (IP 5 mg/kg), -63% in data set [3] (IP 10 mg/kg) and -27% in data set [3] (IP 2,5 mg/kg). The “Reduction in hypercorticosteronemia” value with corticosteronemia (5 mg/kg i.p.) was 11.8%. Also, the “Hypercorticosteronemia after admin. IL-1” value in the data set with corticosteronemia (5 mg/kg i.p.) is 389 ng/ml serum. The hypotension entry in data set [4] was “No hypotension is observed”. Besides, the inhibition at 1000 µM at Procine pancreatic PLA2 (setting [6]) was 97%.
For the molecule `CCCC[N+](C)(C)CCCN1c2ccccc2[S+]([O-])c2ccc(Cl)cc21.[Br-]` (stereo not drawn) [Example 8, N-[3-(2-chloro-5-oxo-phenothiazin-10-yl)propyl] butyldimethylammonium bromide], the inhibition in vivo at 50 mg/kg in the data set with TNF [1] came out at 73%. In the data set with TNF [1] (setting [5]), the inhibition in vivo at 5 mg/kg is 71%. In addition, in the data set on corticosteronemia (5 mg/kg i.p.), the “Reduction in hypercorticosteronemia” value came out at 19.3% and the “Hypercorticosteronemia after admin. IL-1” value is recorded as 356 ng/ml serum. In addition, the hypotension result in data set [4] is listed as “No hypotension is observed”.
As to `CCCC[N+](C)(C)CCCN1c2ccccc2S(=O)(=O)c2ccc(Cl)cc21` [Example 9, N-[3-(2-chloro-5-dioxo-phenothiazin-10-yl)propyl] butyldimethylammonium bromide], in the data set with TNF [1] (setting [5]), the inhibition in vivo at 5 mg/kg is 75%.
For the molecule `C[N+](C)(CCCN1c2ccccc2Sc2ccc(Cl)cc21)Cc1ccccc1.[Br-]` [Example 10, N-[3-(2-chlorophenothiazin-10-yl)propyl] benzyldimethylammonium bromide], the inhibition in vivo at 5 mg/kg with TNF [1] (setting [5]) was found to be 27%. Moreover, the “% survival 72 h after i.p. administration” value in the data set on LPS shock (5 mg/kg) is 60%. Further, in the data set with corticosteronemia (5 mg/kg i.p.), the “Reduction in hypercorticosteronemia” value is given as 0.2% and the “Hypercorticosteronemia after admin. IL-1” value is recorded as 440 ng/ml serum. Moreover, on Procine pancreatic PLA2 (setting [6]), the inhibition at 1000 µM came out at 98%.
Take `O=C(O)CCCN1c2ccccc2Sc2ccc(Cl)cc21` [Example 15, 4-(2-chlorophenothiazin-10-yl)butanoic acid]: the inhibition in vivo at 50 mg/kg in the data set with TNF [1] was determined as 55%.
In the case of `CC(C)=CCC/C(C)=C/CN1c2ccccc2Sc2ccc(Cl)cc21` [Example 26, 2-chloro-10-[(2E)-1-(3,7-dimethylocta-2,6-dienyl)]phenothiazine], the inhibition in vivo at 50 mg/kg in the data set on TNF [1] is 55%.
Turning to `CC(C)(C)C1CCC2(CC1)CCN(CCCN1c3ccccc3Sc3ccc(Cl)cc31)C2` (stereo not drawn) [Example 27, 2-[3-(2-chlorophenothiazin-10-yl)propyl]-8-tert-butyl-2-azoniaspiro[4.5]decane chloride], in the data set with TNF [1], the inhibition in vivo at 50 mg/kg was 26%.
Take `CCN(CC)CCCC(C)Nc1c2ccc(Cl)cc2nc2ccc(OC)cc12` (stereo not drawn) [Mepacrine, reference compound]: the inhibition at 1000 µM at Procine pancreatic PLA2 turned out to be 67%.
